One may read the IC50 as the concentration that gives 50% inhibition.

One assay relates to rats. The experiment in a line: Chung model of neuropathy (L5 spinal nerve ligation, von Frey withdrawal threshold). In kind it is in vivo, rat. Conditions: twenty minutes after subcutaneous injection; Example 2 20 mg/kg, morphine sulphate 2 mg/kg, gabapentin 50 mg/kg; post-surgery pre-drug 0.8±0.1 g.
A further assay addresses T1, hGlyT-2 (Homo sapiens, UniProt Q9Y345).
T1 construct: expressed in transfected cells
T1 sequence (Q9Y345 1-797): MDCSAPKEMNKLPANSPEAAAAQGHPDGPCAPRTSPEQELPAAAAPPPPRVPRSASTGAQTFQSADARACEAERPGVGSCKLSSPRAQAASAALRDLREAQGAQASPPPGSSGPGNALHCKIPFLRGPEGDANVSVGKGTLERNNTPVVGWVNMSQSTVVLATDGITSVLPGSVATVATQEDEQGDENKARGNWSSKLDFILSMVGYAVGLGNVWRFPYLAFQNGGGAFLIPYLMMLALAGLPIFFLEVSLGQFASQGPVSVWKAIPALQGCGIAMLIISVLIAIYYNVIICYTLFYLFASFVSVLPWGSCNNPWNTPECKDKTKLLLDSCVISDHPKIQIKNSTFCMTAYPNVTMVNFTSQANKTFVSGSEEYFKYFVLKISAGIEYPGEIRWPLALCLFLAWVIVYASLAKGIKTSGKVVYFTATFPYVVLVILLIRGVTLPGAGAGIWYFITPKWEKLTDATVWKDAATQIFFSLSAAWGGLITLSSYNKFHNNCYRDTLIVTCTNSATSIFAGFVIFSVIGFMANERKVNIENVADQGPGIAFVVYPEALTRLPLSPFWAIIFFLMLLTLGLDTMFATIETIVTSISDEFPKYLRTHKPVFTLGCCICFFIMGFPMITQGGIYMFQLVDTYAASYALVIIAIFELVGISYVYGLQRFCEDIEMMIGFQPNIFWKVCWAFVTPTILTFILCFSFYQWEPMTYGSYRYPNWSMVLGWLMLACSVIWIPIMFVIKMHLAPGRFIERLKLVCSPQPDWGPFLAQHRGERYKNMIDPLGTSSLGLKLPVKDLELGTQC
The experiment in a line: Glycine uptake assay, CHO cells stably transfected with hGlyT-2. In kind it is cell-based. Particulars: [3H]-glycine 30 μM, 37° C., 10 minutes, read-out: Inhibition of glycine transport by hGlyT-2 IC50. Here is the method: Glycine uptake assays were performed as described by Morrow et al. (FEBS Lett. 1998, 439, 334–340) using CHO cells stably transfected with either hGlyT-1b or hGlyT-2. Cells were grown in 96 well microtitre plates (30,000 cells/well) for 24–48 hours before removal of culture medium and addition of Hanks Balanced Salt Solution (HBSS) containing [^3H]-glycine (30 μM) and varying concentrations of test compounds. Plates were incubated at 37° C. for 10 minutes and uptake terminated by washing three times with ice-cold HBSS. After removal of excess liquid, scintillation cocktail was added to each well, prior to counting in a plate counter. Data were analysed using the GraphPad Prism™ analysis package and the sigmoid dose-response curve fitting option to produce IC50 (the concentration of test compound producing 50% inhibition of uptake) values.

The molecule `COc1cc(C(=O)NCC2(N(C)C)CCCC2)cc(OC)c1OCc1ccccc1` [Example 2, 4-Benzyloxy-3,5-dimethoxy-N-[1-(dimethylaminocyclopentyl)methyl]benzamide] returned a Withdrawal threshold in the assay with rats of 4.7 ± 1.15 g. Regarding `COc1cc(C(=O)NCC2(N(C)C)CCCCC2)cc(OC)c1OCc1ccccc1` [Example 5, 4-Benzyloxy-3,5-dimethoxy-N-[(1-dimethylaminocyclohexyl)methyl]benzamide], on hGlyT-2, the IC50 amounted to 84 nM.

Turning to `CCCCOc1c(OC)cc(C(=O)NCC2(N(C)C)CCCC2)cc1OC` [Example 7, 4-n-Butyloxy-3,5-dimethoxy-N-[(1-dimethylaminocyclopentyl)methyl]benzamide], the IC50 at hGlyT-2 amounted to 77 nM. Take `Cc1cc(C(=O)NCC2(N(C)C)CCC2)cc(C)c1OCc1ccccc1` [Example 8, 4-Benzyloxy-3,5-dimethyl-N-[1-(dimethylaminocyclobutyl)methyl]benzamide]: the half-maximal inhibitory concentration (IC50) at hGlyT-2 was 16 nM.

For `Cc1cc(C(=O)NCC2(N(C)C)CCCC2)cc(C)c1OCc1ccccc1` [Example 9, 4-Benzyloxy-3,5-dimethyl-N-[(1-dimethylaminocyclopentyl)methyl]benzamide], the IC50 on hGlyT-2 came out at 27 nM. Turning to `COc1cc(C(=O)NCC2(N(C)C)CCCC2)cc(OC)c1OCc1ccc(C)cc1` [Example 10, 3,5-Dimethoxy-4-(4-methylbenzyloxy)-N-[(1-dimethylaminocyclopentyl)methyl]benzamide], the half-maximal inhibitory concentration (IC50) on hGlyT-2 worked out at 30 nM.

Consider `COc1cc(C(=O)NCC2(N(C)C)CCCC2)cc(OC)c1OC(C)c1ccccc1` (stereo not drawn) [Example 11, 3,5-Dimethoxy-4-(1-phenyl)ethoxy-N-[1-(dimethylaminocyclopentyl)methyl]benzamide], for which the IC50 on hGlyT-2 was 35 nM. On to `COc1cc(C(=O)NCC2(N(C)C)CCCC2)cc(OC)c1OCc1ccc(Cl)cc1` [Example 12, 4-(4-Chloro)benzyloxy-3,5-dimethoxy-N-[1-(dimethylaminocyclopentyl)methyl]benzamide], for which, at hGlyT-2, the 50% inhibitory concentration (IC50) is 44 nM.

Consider `COc1cc(C(=O)NCC2(N(C)C)CCCCC2)cc(OC)c1OCC1CCCCC1` [Example 13, 4-(Cyclohexylmethoxy)-3,5-dimethoxy-N-[(1-dimethylaminocyclohexyl)methyl]benzamide], for which, at hGlyT-2, the half-maximal inhibitory concentration (IC50) came out at 71 nM. Take `COc1cc(C(=O)NCC2(N(C)C)CCCC2)cc(OC)c1OCc1ccc(C(F)(F)F)cc1` [Example 14, 3,5-Dimethoxy-4-(4-trifluoromethylbenzyloxy)-N-[(1-dimethylaminocyclopentyl)methyl]benzamide]: the IC50 at hGlyT-2 came to 76 nM.

`COc1cc(C(=O)NCC2(N(C)C)CCCC2)cc(OC)c1OCC(C)C` [Example 15, 3,5-Dimethoxy-4-(2-methylpropoxy)-N-[(1-dimethylaminocyclopentyl)methyl]benzamide]: the IC50 on hGlyT-2 came out at 79 nM. As to `Cc1cc(C(=O)NCC2(N(C)C)CCCCCC2)cc(C)c1OCc1ccccc1` [Example 16, 4-Benzyloxy-3,5-dimethyl-N-[(1-dimethylaminocycloheptyl)methyl]benzamide], the half-inhibitory concentration (IC50) on hGlyT-2 turned out to be 92 nM. As for `COc1cc(C(=O)NCC2(N(C)C)CCCC2)cc(OC)c1OCCc1ccccc1` [Example 18, 3,5-Dimethoxy-4-(2-phenylethoxy)-N-[(1-dimethylaminocyclopentyl)methyl]benzamide], the IC50 on hGlyT-2 is 156 nM.

Consider `COc1cc(C(=O)NCC2(N(C)C)CCCC2)cc(OC)c1OCc1cccc2ccccc12` [Example 19, 3,5-Dimethoxy-4-(1-naphthyl)methoxy-N-[(1-dimethylaminocyclopentyl)methyl]benzamide], for which, on hGlyT-2, the IC50 was 215 nM. Turning to `Cc1cc(C(=O)NCC2(N(C)C)CCCC2)cc(C)c1OCc1ccsc1` [Example 20, 3,5-Dimethyl-4-(3-thienyl)methoxy-N-[(1-dimethylaminocyclopentyl)methyl]benzamide], on hGlyT-2, the IC50 was 32 nM. Regarding `COc1cc(C(=O)NCC2(N(C)C)CCCC2)cc(OC)c1OC1CCCC1` [Example 21, 4-Cyclopentyloxy-3,5-dimethoxy-N-[(1-dimethylaminocyclopentyl)methyl]benzamide], the IC50 at hGlyT-2 worked out at 329 nM. `NCC1(CC(=O)O)CCCCC1` [gabapentin] gave a Withdrawal threshold with rats of 3.2 ± 1.5 g. As for `CN1CC[C@]23c4c5ccc(O)c4O[C@H]2[C@@H](O)C=C[C@H]3[C@H]1C5.O=S(=O)(O)O` [morphine, morphine sulphate], in the assay with rats, the Withdrawal threshold turned out to be 4.2 ± 1.5 g.
